Reference: patent US11236052B2, “Aminobenzimidazole derivatives, treatments, and methods of inhibiting histone deacetylase” (TRANSLATIONAL DRUG DEVELOPMENT, LLC, priority 2017, dated 2022)
Read-outs that look alike come from different tables or passages of the source. One block for each molecule: values may come before it.

How the values were obtained:
[1] = test system: MM1.S cells; test: CellTiter-Glo cell viability assay, MM1.S cells; format: cell-based, human; settings: Homo sapiens; MM1.S cells, 72 hours treatment; read-out: IC50 in MM1.S
Description: Cell viability in the presence of varying concentrations of the above listed compounds at different time points was used to assess cytotoxicity and the effect of the compounds on cell proliferation.
(§1) Cell Viability Assay—Cell viability was measured by the CellTiter-GlO® cell viability assay from Promega (Madison, Wis.). The CellTiter-GlO® Luminescent Cell Viability Assay is a homogeneous method to determine the number of viable cells in culture based on quantitation of the ATP present, which signals the presence of metabolically active cells. Following treatment, CellTiter-GlO® is added to treatment wells and incubated at 37° C. luminescence values were measured at using a Molecular Devices Spectramax microplate reader
(§2) Single Agent Studies—Cells were grown to 70% confluency, trypsinized, counted, and seeded in 96 well flat-bottom plates at a final concentration of 2.5×10^3-5×10^3 cells/well (Day 0). Cells were allowed to incubate in growth media for 24 hours. Treatment with the test agents or standard agents began on Day 1 and continued for 72 hours. At the 72 hour timepoint, treatment containing media was removed. Viable cell numbers are quantified by the CellTiter-GlO® cell viability assay as described above. Results from these studies were used to calculate an IC50 value (concentration of drug that inhibits cell growth by 50 percent of control) for each compound.
Data Collection—For single agent and combination studies, data from each experiment was collected and expressed as % Cell Growth using the following calculation: Cell Growth=(ftest/fvehicle)×100
Where ftest is the fluorescence of the tested sample, and fvehicle is the fluorescence of the vehicle in which the drug is dissolved. Dose response graphs and IC50 values were generated using Prism 6 software (GraphPad) using the following equation: […]
Where X is the logarithm of concentration and Y is the response. Y starts at the Bottom and goes to Top with a sigmoid shape.
as §1, with “CellTiter-Glo®” for “CellTiter-GlO®”, “assay” for “assay from”, “reader.” for “reader”
as §2, with “agents” for “agents or standard agents”, “72-hour time point, treatment-containing” for “72 hour timepoint, treatment containing”, “CellTiter-Glo®” for “CellTiter-GlO®”, “above. Experiments were run with triplicate concentrations to determine growth inhibitory activity.” for “above.”
Data Collection—For single agent and combination studies, data from each experiment was collected and expressed as % Cell Growth using the following calculation: % Cell Growth=(ftest/fvehicle)×100
Where ftest is the luminescence of the tested sample, and fvehicle is the luminescence of the vehicle in which the drug is dissolved. Dose response graphs and IC50 values were generated using Prism 6 software (GraphPad).

[2] = biological target: HDAC1 (Homo sapiens (Human), UniProt Q13547); test: In vitro HDAC enzyme inhibition, mobility shift; format: biochemical; settings: purified enzyme
HDAC1, sequence (Q13547 whole entry): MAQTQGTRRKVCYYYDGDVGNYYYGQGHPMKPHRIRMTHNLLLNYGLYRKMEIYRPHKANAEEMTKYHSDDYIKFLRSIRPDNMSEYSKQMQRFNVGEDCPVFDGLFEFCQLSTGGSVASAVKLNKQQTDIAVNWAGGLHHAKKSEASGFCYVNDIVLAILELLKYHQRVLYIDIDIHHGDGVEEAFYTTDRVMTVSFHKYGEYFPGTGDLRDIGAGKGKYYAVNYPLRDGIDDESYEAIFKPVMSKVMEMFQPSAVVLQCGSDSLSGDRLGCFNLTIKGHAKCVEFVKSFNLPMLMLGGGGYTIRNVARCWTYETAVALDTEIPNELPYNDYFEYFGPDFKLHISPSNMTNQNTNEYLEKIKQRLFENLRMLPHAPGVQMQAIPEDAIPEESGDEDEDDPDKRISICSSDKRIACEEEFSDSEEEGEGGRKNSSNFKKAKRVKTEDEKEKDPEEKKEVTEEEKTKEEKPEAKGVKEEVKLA
Description: (§3) Purified histone deacetylase enzymes 1, 3, 6, 10 were incubated with fluorescently labeled substrate and test compounds in a standardized reaction mixture in 384 well plates. Upon termination of the reaction, samples were introduced onto microfluidic chips. Samples migrate through channels in the chips and product and substrate are separated based on the difference in their charge and mass (electrophoretic mobility shift). Enzyme activity is measured by direct comparison of the fluorescence in the product and substrate peaks and the results presented in Table 4.

[3] = biological target: HDAC10 (Homo sapiens (Human), UniProt Q969S8); test: In vitro HDAC enzyme inhibition, mobility shift; format: biochemical; settings: purified enzyme
HDAC10, sequence (Q969S8 whole entry): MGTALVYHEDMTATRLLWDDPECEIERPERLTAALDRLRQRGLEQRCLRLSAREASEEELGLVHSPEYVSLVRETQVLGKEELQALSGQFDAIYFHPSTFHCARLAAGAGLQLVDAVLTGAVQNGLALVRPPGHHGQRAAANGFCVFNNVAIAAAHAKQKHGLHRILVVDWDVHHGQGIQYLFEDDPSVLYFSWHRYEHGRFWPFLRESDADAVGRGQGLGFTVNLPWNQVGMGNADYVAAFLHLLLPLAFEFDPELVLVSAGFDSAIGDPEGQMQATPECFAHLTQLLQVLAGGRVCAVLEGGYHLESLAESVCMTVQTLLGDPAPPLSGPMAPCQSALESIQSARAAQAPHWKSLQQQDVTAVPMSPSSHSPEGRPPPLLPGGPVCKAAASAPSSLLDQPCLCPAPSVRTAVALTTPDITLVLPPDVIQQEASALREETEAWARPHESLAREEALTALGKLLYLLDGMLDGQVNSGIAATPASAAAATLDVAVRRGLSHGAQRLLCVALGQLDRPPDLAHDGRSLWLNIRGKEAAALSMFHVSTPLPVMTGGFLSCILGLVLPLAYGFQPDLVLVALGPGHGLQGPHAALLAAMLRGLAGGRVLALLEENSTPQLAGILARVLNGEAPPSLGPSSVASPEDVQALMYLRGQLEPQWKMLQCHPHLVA
Description: as §3

[4] = biological target: HDAC3 (Homo sapiens (Human), UniProt O15379); test: In vitro HDAC enzyme inhibition, mobility shift; format: biochemical; settings: purified enzyme
HDAC3, sequence (O15379 whole entry): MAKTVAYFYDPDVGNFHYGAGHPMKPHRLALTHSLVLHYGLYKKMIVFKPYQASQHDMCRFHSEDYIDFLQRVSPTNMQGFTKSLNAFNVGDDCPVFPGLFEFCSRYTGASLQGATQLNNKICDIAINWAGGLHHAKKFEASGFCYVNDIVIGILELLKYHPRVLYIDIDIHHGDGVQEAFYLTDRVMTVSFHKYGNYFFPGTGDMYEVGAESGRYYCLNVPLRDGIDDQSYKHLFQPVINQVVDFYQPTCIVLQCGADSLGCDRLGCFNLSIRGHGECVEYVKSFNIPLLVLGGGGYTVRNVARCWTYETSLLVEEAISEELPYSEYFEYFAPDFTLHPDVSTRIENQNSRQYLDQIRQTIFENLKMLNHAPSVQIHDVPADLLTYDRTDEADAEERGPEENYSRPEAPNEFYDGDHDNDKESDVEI
HDAC3, sequence (Q9Y618 395-489 partner): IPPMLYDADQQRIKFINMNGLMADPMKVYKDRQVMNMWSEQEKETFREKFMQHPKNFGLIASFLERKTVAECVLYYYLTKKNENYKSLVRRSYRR
Description: as §3

[5] = biological target: HDAC6 (Homo sapiens (Human), UniProt Q9UBN7); test: In vitro HDAC enzyme inhibition, mobility shift; format: biochemical; settings: purified enzyme
HDAC6, sequence (Q9UBN7 whole entry): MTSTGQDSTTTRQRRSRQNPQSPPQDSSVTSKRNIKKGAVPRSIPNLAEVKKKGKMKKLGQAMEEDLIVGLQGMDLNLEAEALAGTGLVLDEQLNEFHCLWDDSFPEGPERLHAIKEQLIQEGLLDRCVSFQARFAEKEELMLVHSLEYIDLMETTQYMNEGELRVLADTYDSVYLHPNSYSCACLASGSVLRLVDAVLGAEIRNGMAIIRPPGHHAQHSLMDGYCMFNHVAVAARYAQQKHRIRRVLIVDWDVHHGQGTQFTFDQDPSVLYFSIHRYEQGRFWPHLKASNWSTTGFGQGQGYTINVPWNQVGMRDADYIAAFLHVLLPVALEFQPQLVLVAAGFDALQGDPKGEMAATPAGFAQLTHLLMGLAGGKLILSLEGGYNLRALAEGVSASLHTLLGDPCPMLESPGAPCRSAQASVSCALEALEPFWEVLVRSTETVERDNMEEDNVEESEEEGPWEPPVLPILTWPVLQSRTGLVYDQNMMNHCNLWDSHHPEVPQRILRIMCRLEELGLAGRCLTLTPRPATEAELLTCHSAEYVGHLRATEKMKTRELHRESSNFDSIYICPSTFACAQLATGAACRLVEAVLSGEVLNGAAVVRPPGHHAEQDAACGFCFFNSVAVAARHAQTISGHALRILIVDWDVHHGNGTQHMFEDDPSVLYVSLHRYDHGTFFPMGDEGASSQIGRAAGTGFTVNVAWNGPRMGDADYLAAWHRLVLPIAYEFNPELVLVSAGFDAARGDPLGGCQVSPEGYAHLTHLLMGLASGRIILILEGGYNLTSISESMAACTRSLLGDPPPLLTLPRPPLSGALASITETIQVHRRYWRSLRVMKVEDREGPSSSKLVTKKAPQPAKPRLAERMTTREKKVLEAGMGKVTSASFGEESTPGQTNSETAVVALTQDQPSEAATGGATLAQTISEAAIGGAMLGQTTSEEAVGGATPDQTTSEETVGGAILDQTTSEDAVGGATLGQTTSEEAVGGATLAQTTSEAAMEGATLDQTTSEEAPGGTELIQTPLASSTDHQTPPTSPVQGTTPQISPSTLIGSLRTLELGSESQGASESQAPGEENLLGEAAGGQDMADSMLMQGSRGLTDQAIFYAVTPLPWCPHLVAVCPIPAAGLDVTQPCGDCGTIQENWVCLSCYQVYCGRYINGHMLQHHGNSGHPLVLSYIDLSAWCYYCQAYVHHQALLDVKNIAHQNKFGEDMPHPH
Description: as §3

[6] = Pharmacokinetic studies in the mouse; format: in vivo
Description: Plasma samples were collected from healthy mice and analyzed for levels of compound ID #1, ID #2, and ID #3 and reported in Table 5. In brief, compounds were individually and accurately weighed out to produce a stock solution in Dimethyl-sulfoxide (DMSO) at a concentration of 2 mg/mL and stored at −20° C. From the stock solution, a working stock was prepared by diluting it in Methanol-Water 50:50 (v/v) at 20 μg/mL for calibration curve preparation and stored at 4° C. Standards used for quantitation and quality control samples (QC's) were prepared on the same day of sample processing using blank plasma obtained from non-treated mice. For each analyte, standards were prepared through serial dilution of the working stock at concentrations of 0.1, 0.5, 1.0, 10, 50, 100, 500 and 1000 ng/mL; QC's were prepared at intermediate concentrations of 0.75, 7.5, 75 and 750 ng/mL. Plasma samples were stored at −80° C. until ready for analysis and then placed on ice for thawing. An aliquot of 20 μL for samples, standards and QC's, were transferred into a 96-well extraction plate according to a pre-defined layout. Appropriate volume of Methanol-Formic Acid 99.9-0.1 containing internal standard (Verapamil at 25 ng/mL) was added to each well and samples were extracted under vacuum. Eluent was then transferred into a LCMS plate for analysis using a suitable column for separation and MRM detection. Concentration of analytes was calculated based on the calibration curve and analyzed for pharmacokinetic parameters by using Non-compartmental analysis (NCA) using WinNonlin Phoenix software. Parameters such as Cmax, Tmax, half-life, AUC(0-last), AUC(0-∞), volume of distribution (Vss) and clearance (Cl/F) were reported.
The analogs were tested for pharmacokinetic analysis in the mouse with doses of 1 mg/kg for intravenous (IV) route and 5 mg/kg for oral (P0) route. […] Overall exposure following IV dose also favored compound ID #1 with AUCO-∞ 1488.1 hr*ng/mL whereas compound ID #2 and ID #3 were 329.1 and 1193.7 hr*ng/mL, respectively.

[7] = Permeability (PAMPA); format: in vitro ADME; settings: read-out: Permeabiltiy (PAMPA)
[8] = S9 in vitro half-life; format: in vitro ADME; settings: S9 fraction

IC50 [1]: 2.2 µM
SMILES: O=C(NO)c1ccc(Nc2nc3ccccc3n2CC2CCCC2)cc1 [ID #5, 4-((1-(cyclopentylmethyl)-1H-benzo[d]imidazol-2-yl)amino)-N-hydroxybenzamide]

IC50 [1]: 2.6 µM
SMILES: O=C(NO)c1ccc(Nc2nc3ccccc3n2CC2(F)CCCCC2)cc1 [ID #4]

IC50 [1]: 0.7 µM
SMILES: O=C(NO)c1ccc(Nc2nc3ccccc3n2CC2CCC(F)(F)CC2)cc1 [ID #7]

IC50 [1]: 2 µM
IC50 [2]: 0.385 µM
IC50 [3]: 3.56 µM
IC50 [4]: 0.068 µM
IC50 [5]: 0.015 µM
AUC0-∞ ([6]; 1.0 mg/kg IV): 0.32914 µg·h/mL
AUC % Extrap ([6]; 1.0 mg/kg IV): 1.44%
Cl/F obs ([6]; 1.0 mg/kg IV): 3.04 L/h/kg
Rsq (>0.85) ([6]; 1.0 mg/kg IV): 0.85
half-life ([6]; 1.0 mg/kg IV): 1.20 h
AUC % Extrap ([6]; 5.0 mg/kg PO): 0.14%
Cmax ([6]; 5.0 mg/kg PO): 0.4071 µg/mL
Rsq (>0.85) ([6]; 5.0 mg/kg PO): 1.00
AUC(0-t) ([6]; plasma, 1.0 mg/kg IV): 0.324 µg·h/mL
Tmax ([6]; plasma, 1.0 mg/kg IV): 0.08 h
half-life ([6]; plasma, 1.0 mg/kg IV, read-out: Half-life (converted)): 1.2 h
Vd ([6]; plasma, 1.0 mg/kg IV, read-out: Vss): 3.5 L/kg
AUC(0-t) ([6]; plasma, 5.0 mg/kg PO): 1.28 µg·h/mL
CL/F ([6]; plasma, 5.0 mg/kg PO): 3.91 L/h/kg
Tmax ([6]; plasma, 5.0 mg/kg PO): 0.5 h
bioavailability ([6]; plasma, 5.0 mg/kg PO): 77.6%
half-life ([6]; plasma, 5.0 mg/kg PO, read-out: Half-life (converted)): 2.56 h
Vd/F ([6]; plasma, 5.0 mg/kg PO, read-out: Vz/F obs): 14.5 L/kg
AUC(0-inf) ([6]; plasma, iv, 1 mg/kg, 1.0 mg/kg IV, read-out: AUC0-∞): 0.329 µg·h/mL
Cmax ([6]; plasma, iv, 1 mg/kg, 1.0 mg/kg IV, read-out: Cmax): 0.508 µg/mL
AUC(0-inf) ([6]; plasma, po, 5 mg/kg, 5.0 mg/kg PO, read-out: AUC0-∞): 1.28 µg·h/mL
Cmax ([6]; plasma, po, 5 mg/kg, 5.0 mg/kg PO, read-out: Cmax): 0.407 µg/mL
AUC(0-inf) ([6]; plasma, po, 5 mg/kg, 5 mg/kg oral, read-out: AUC0-∞ (overall exposure following oral doses)): 1.28 µg·h/mL
Papp [7]: 16.5 nm/s
half-life [8]: > 1.5 h
SMILES: O=C(NO)c1ccc(Nc2nc3ccccc3n2C2CCCCC2)cc1 [ID #2, 4-((1-cyclohexyl-1H-benzo[d]imidazol-2-yl)amino)-N-hydroxybenzamide]

IC50 [1]: 2.9 µM
SMILES: O=C(NO)c1ccc(Nc2nc3cc(F)ccc3n2CC2CCOCC2)cc1 [ID #10, 4-((5-fluoro-1-((tetrahydro-2H-pyran-4-yl)methyl)-1H-benzo[d]imidazol-2-yl)amino)-N-hydroxybenzamide]

IC50 [1]: 2.9 µM
SMILES: O=C(NO)c1ccc(Nc2nc3ccccc3n2CC2CCOCC2)cc1 [ID #9, N-hydroxy-4-((1-((tetrahydro-2H-pyran-4-yl)methyl)-1H-benzo[d]imidazol-2-yl)amino)benzamide]

IC50 [1]: 1.2 µM
SMILES: O=C(NO)c1ccc(Nc2nc3cc(F)ccc3n2CC2CCC(F)(F)CC2)cc1 [ID #8]

IC50 [1]: 1.1 µM
SMILES: O=C(NO)c1ccc(Nc2nc3ccccc3n2CCC2CCCC2)cc1 [ID #6, 4-((1-(2-cyclopentylethyl)-1H-benzo[d]imidazol-2-yl)amino)-N-hydroxybenzamide]
